Source: patent publication EP3884956A1, “METHODS FOR PRODUCING HEME PEROXIDASES” (Technische Universität Wien, priority 2020, dated 2021)
Where a chain is given by its changes, count along the chain named.

What was measured:
Experiment in all cases: Enzyme kinetic parameters, 96-well plate assay
Assay type in all cases: biochemical
[1] = target: T1, plant-derived HRP (pHRP; Plant HRP Type VI-A, horseradish peroxidase) (Armoracia rusticana, UniProt P00433); conditions: Table 19; ABTS 0.1 - 7 mM, 1 mM hydrogen peroxide, 50 mM phosphate-citrate buffer pH 5, 30 °C
T1 sequence (P00433 31-338): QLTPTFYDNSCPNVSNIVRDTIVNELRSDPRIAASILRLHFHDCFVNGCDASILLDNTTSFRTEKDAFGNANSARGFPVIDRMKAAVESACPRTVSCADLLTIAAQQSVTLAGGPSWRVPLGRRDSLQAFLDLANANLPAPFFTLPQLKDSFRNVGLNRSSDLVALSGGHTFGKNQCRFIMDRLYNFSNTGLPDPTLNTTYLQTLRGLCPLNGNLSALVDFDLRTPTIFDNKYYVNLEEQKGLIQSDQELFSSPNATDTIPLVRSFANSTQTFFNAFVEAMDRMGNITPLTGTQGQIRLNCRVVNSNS
Protocol: (§1) Plant HRP Type VI-A (Cat. No.: P6782) was obtained from Sigma-Aldrich (St. Louis, MO, USA). All HRP variants produced in E. coli consisted of the sequence as set forth in SEQ ID NO: 2 with the indicated mutations unless specified otherwise.
(§2) For measurements with 3,3',5,5'-tetramethylbenzidine (TMB) as substrate, the reaction mixture in each well of the 96-well plate contained a saturating hydrogen peroxide concentration of 1 mM and varying TMB concentrations (20 - 550 µM) in 50 mM phosphate-citrate buffer pH 5 in a final volume of 200 µL. Protein sample (5 µL) was mixed with 175 µl TMB-buffer mixture and the reaction was started with 20 µl hydrogen peroxide solution (10 mM). The increase in absorption was followed at 652 nm for 60s at 30 °C in a Tecan Infinite M200 PRO instrument. The kinetic parameters were calculated using Sigma Plot software (Systat Software INC., San Jose, CA, USA) and an extinction coefficient of ε652 = 39 mM^-1 cm^-1 (see Josephy, et al. "The horseradish peroxidase-catalyzed oxidation of 3, 5, 3', 5'-tetramethylbenzidine. Free radical and charge-transfer complex intermediates." Journal of Biological Chemistry 257.7 (1982): 3669-3675).
(§3) The increase in absorption was followed at 420 nm for 120 s at 30 °C in a Tecan Infinite M200 PRO instrument. The kinetic parameters were calculated using Sigma Plot software (Systat Software INC., San Jose, CA, USA) and an extinction coefficient of ε420 = 36 mM^-1 cm^-1 (see Childs and Bardsley. "The steady-state kinetics of peroxidase with 2, 2'-azino-di-(3-ethyl-benzthiazoline-6-sulphonic acid) as chromogen." Biochemical Journal 145.1 (1975): 93-103).

[2] = target: T2, horseradish peroxidase variant HRP N13D/N57S/N175S/N255D/N268D (Armoracia rusticana, UniProt P00433, N205S/N285D/N298D/N43D/N87S); conditions: 50 mM phosphate-citrate buffer pH 5, 30 °C
T2 sequence (P00433 31-338 N43D/N87S/N205S/N285D/N298D): T1 sequence (P00433 31-338) with N13D, N57S, N175S, N255D, N268D
Protocol: as §1, §2, §3, §3

[3] = target: T3, horseradish peroxidase variant HRP N13D/N57S/P146Q/N175S/N255D/N268D/N275K (mHRP, SEQ ID NO: 4) (Armoracia rusticana, UniProt P00433, N205S/N285D/N298D/N305K/N43D/N87S/P176Q); conditions: 50 mM phosphate-citrate buffer pH 5, 30 °C; for Vmax (substrate ABTS): ABTS 0.1 - 7 mM, 1 mM hydrogen peroxide
T3 sequence (P00433 31-338 N43D/N87S/P176Q/N205S/N285D/N298D/N305K): T1 sequence (P00433 31-338) with N13D, N57S, P146Q, N175S, N255D, N268D, N275K
Protocol: as §1, §2, §3, §3

[4] = target: T4, wild-type HRP (rHRP, horseradish peroxidase variant C1A, SEQ ID NO: 2) (Armoracia rusticana, UniProt P00433); conditions: Table 20; TMB 20 - 550 µM, 1 mM hydrogen peroxide, 50 mM phosphate-citrate buffer pH 5, 30 °C
T4 sequence (P00433 31-338): T1 sequence (P00433 31-338)
Protocol: as §1, §2, §3

[5] = Table 17, hydrogen peroxide 0.001 - 1 mM, 10 mM ABTS
[6] = Table 17, hydrogen peroxide 0.001 - 1 mM, 10 mM ABTS, read-out: Km (substrate H2O2)

SMILES: CCn1c(=NN=c2sc3cc(S(=O)(=O)O)ccc3n2CC)sc2cc(S(=O)(=O)O)ccc21 [ABTS, 2,2'-azino-bis(3-ethylbenzothiazoline-6-sulfonic acid)]
- Vmax (substrate ABTS) [1]: 1285 ± 70 U/mg
- Vmax (substrate ABTS) ([2]; Table 18, ABTS 0.1 - 7 mM, 1 mM hydrogen peroxide): 1224 ± 115 U/mg
- Vmax (substrate ABTS) ([3]; Table 18): 1214 ± 98 U/mg
- Vmax (substrate ABTS) ([3]; Table 19): 1203 ± 96 U/mg

SMILES: OO [H2O2, hydrogen peroxide]
- Vmax (substrate H2O2) [2, 5]: 2003 ± 14 U/mg
- kcat (substrate H2O2) [2, 5]: 1152 ± 8.3 s⁻¹
- Km [2, 6]: 174 ± 4 µM
- Vmax (substrate H2O2) [3, 5]: 2337 ± 38 U/mg
- kcat (substrate H2O2) [3, 5]: 1344 ± 22 s⁻¹
- Km [3, 6]: 171 ± 9 µM

SMILES: Cc1cc(-c2cc(C)c(N)c(C)c2)cc(C)c1N [TMB, 3,3',5,5'-tetramethylbenzidine]
- Vmax (substrate TMB) [4]: 7146 ± 355 U/mg
- kcat (substrate TMB) [4]: 4169 ± 207 s⁻¹
